In the experiment the test system is VSV-g pseudotyped HIV vector that expresses luciferase (PHIV). Description: microbe, parasite or virus in culture. It counts as cell-based. Particulars: Human immunodeficiency virus 1, HEK-293T, 48 h, read-out: PHIV IC50.

Each structure is given as a SMILES string. Structures can show the parent of a compound that is named as a salt.

As a reminder, the IC50 is the concentration that inhibits the measured activity by half.

As to `O=C(NCc1ccc(F)cc1F)c1cn2c(c(O)c1=O)C(=O)N1[C@@H](C2)OC[C@@H]2CCCC[C@@H]21` (racemic) [Example Z-35, racemic-(4aR,6aR,14aS)—N-[(2,4-Difluorophenyl)methyl]-12-hydroxy-11,13-dioxo-1,3,4,4a,5,6a,7,11,13,14a-decahydro-2H-pyrido[1′,2′:4,5]pyrazino[1,2-a][3,1]benzoxazine-10-carboxamide], the IC50 is below 10 nM.
Regarding `O=C(NCc1ccc(F)cc1)c1cn2c(c(O)c1=O)C(=O)N1[C@@H](C2)OC[C@@H]2CCCC[C@@H]21` (racemic) [Example Z-36, racemic-(4R,6aR,14aS)—N-[(4-Fluorophenyl)methyl]-12-hydroxy-11,13-d oxo-1,3,4,4a,5,6a,7,11,13,14a-decahydro-2H-pyrido[1′,2′:4,5]pyrazino[1,2-a][3,1]benzoxazine-10-carboxamide], the IC50 is below 10 nM.
On to `O=C(NCc1ccc(F)cc1F)c1cn2c(c(O)c1=O)C(=O)N1[C@@H](C2)OC[C@@H]2C[C@@H](c3ccccc3)CC[C@@H]21` (racemic) [Example Z-37, racemic-(3S,4aR,6aR,14aS)—N-[(2,4-Difluorophenyl)methyl]-12-hydroxy-11,13-dioxo-3-phenyl-1,3,4,4a,5,6a,7,11,13,14a-decahydro-2H-pyrido[1′,2′:4,5]pyrazino[1,2-a][3,1]benzoxazine-10-carboxamide], for which the IC50 was below 10 nM.
With `CC(C)CN1C[C@@H]2CCCC[C@@H]2N2C(=O)c3c(O)c(=O)c(C(=O)NCc4ccc(F)cc4F)cn3C[C@@H]12` (racemic) [Example Z-38, Sodium racemic-(4aS,6aS,14aS)-10-({[(2,4-difluorophenyl)methyl]amino}carbonyl)-6-(2-methylpropyl)-11,13-dioxo-1,2,3,4,4a,5,6,6a,7,11,13,14a-dodecahydropyrido[1′,2′:4,5]pyrazino[1,2-a]quinazolin-12-olate], the IC50 was in the range of 10 to 100 nM.
Turning to `CC(C)CN1C[C@@H]2CCC[C@@H]2N2C(=O)c3c(O)c(=O)c(C(=O)NCc4ccc(F)cc4F)cn3C[C@@H]12` (racemic) [Example Z-49, racemic-(3aS,5aS,13aS)—N-[(2,4-Difluorophenyl)methyl]-11-hydroxy-5-(2-methylpropyl)-10,12-dioxo-2,3,3a,4,5,5a,6,10,12,13a-decahydro-1H-cyclopenta[e]pyrido[1′,2′:4,5]pyrazino[1,2-a]pyrimidine-9-carboxamide], the IC50 is below 10 nM.
Next, `O=C(NCc1ccc(F)cc1F)c1cn2c(c(O)c1=O)C(=O)N1[C@H]3CCCC[C@H]3CN(CCN3CCOCC3)[C@@H]1C2` (racemic) [Example Z-51, racemic-(4aS,6aS,14aS)—N-[(2,4-Difluorophenyl)methyl]-12-hydroxy-6-[2-(4-morpholinyl)ethyl]-11,13-dioxo-1,2,3,4,4a,5,6,6a,7,11,13,14a-dodecahydropyrido-[1′,2′:4,5]pyrazino[1,2-a]quinazoline-10-carboxamide]: below 10 nM.
Turning to `O=C(NCc1ccc(F)cc1F)c1cn2c(c(O)c1=O)C(=O)N1[C@@H](C2)OC[C@@H]2CCC[C@@H]21` (racemic) [Example Z-52, racemic-(3aR,5aR,13aS)—N-[(2,4-Difluorophenyl)methyl]-11-hydroxy-10,12-dioxo-1,2,3,3a,4,5a,6,10,12,13a-decahydrocyclopenta[d]pyrido[1′,2′:4,5]pyrazino[2,1-b][1,3]oxazine-9-carboxamide], the IC50 was below 10 nM.
With `CN1C[C@@H]2CCCC[C@@H]2N2C(=O)c3c(O)c(=O)c(C(=O)NCc4ccc(F)cc4F)cn3C[C@@H]12` (racemic) [Example Z-53, racemic-(4aS,6aS,14aS)—N-[(2,4-Difluorophenyl)methyl]-12-hydroxy-6-methyl-11,13-dioxo-1,2,3,4,4a,5,6,6a,7,11,13,14a-dodecahydropyrido[1′,2′:4,5]pyrazino[1,2-a]quinazoline-10-carboxamide], the 50% inhibitory concentration (IC50) is below 10 nM.
Take `COCCN1C[C@@H]2CCCC[C@@H]2N2C(=O)c3c(O)c(=O)c(C(=O)NCc4ccc(F)cc4F)cn3C[C@@H]12` (racemic) [Example Z-54, racemic-(4aS,6aS,14aS)—N-[(2,4-Difluorophenyl)methyl]-12-hydroxy-6-[2-(methyloxy)ethyl]11,13-dioxo-1,2,3,4,4a,5,6,6a,7,11,13,14a-dodecahydropyrido[1′,2′:4,5]pyrazino[1,2-a]quinazoline-10-carboxamide]: the IC50 is below 10 nM.
For `CC(=O)NCCN1C[C@@H]2CCCC[C@@H]2N2C(=O)c3c(O)c(=O)c(C(=O)NCc4ccc(F)cc4F)cn3C[C@@H]12` (racemic) [Example Z-55], the IC50 fell in the range of 10 to 100 nM.
`C[C@@H]1CO[C@H]2Cn3cc(C(=O)NCc4ccc(F)cc4F)c(=O)c(O)c3C(=O)N12` [Example Z-1, (3R,11aS)—N-[(2,4-Difluorophenyl)methyl]-6-hydroxy-3-methyl-5,7-dioxo-2,3,5,7,11,11a-hexahydro[1,3]oxazolo[3,2-a]pyrido[1,2-d]pyrazine-8-carboxamide sodium salt]: the IC50 is below 10 nM.
Turning to `O=C(NCc1ccc(F)cc1F)c1cn2c(c(O)c1=O)C(=O)N1C[C@@H]3CCCN3[C@H]1C2` [Example Z-2, (4aR,13aS)—N-[(2,4-Difluorophenyl)methyl]-10-hydroxy-9,11-dioxo-2,3,4a,5,9,11,13,13a-octahydro-1H-pyrido[1,2-a]pyrrolo[1′,2′:3,4]imidazo[1,2-d]pyrazine-8-carboxamide], the IC50 is below 10 nM.
In the case of `O=C(NCc1ccc(F)cc1F)c1cn2c(c(O)c1=O)C(=O)N1CC[C@@H]3CCCN3[C@@H]1C2` [Example Z-3, (3aS,13aS)—N-[(2,4-Difluorophenyl)methyl]-8-hydroxy-7,9-dioxo-1,2,3,3a,4,5,7,9,13,13a-decahydropyrido-[1′,2′:4,5]pyrazino[1,2-a]pyrrolo[1,2-c]pyrimidine-10-carboxamide], the IC50 was below 10 nM.
Take `O=C(NCc1ccc(F)cc1F)c1cn2c(c(O)c1=O)C(=O)N1C[C@H]3CCCN3[C@@H]1C2` [Example Z-4, (4aS,13aR)—N-[(2,4-Difluorophenyl)methyl]-10-hydroxy-9,11-dioxo-2,3,4a,5,9,11,13,13a-octahydro-1H-pyrido[1,2-a]pyrrolo[1′,2′:3,4]imidazo[1,2-d]pyrazine-8-carboxamide sodium salt]: the IC50 was below 10 nM.
Then `O=C(NCc1ccc(F)cc1)c1cn2c(c(O)c1=O)C(=O)N1C[C@H]3CCCN3[C@@H]1C2` [Example Z-5, (4aS,13aR)—N-[(4-Fluorophenyl)methyl]-10-hydroxy-9,11-dioxo-2,3,4a,5,9,11,13,13a-octahydro-1H-pyrido[1,2-a]pyrrolo[1′,2′:3,4]imidazo[1,2-d]pyrazine-8-carboxamide], with below 10 nM; and `O=C(NCc1ccc(F)cc1F)c1cn2c(c(O)c1=O)C(=O)N1[C@@H](Cc3ccccc3)CO[C@@H]1C2` [Example Z-6, (3S,11aR)—N-[(2,4-Difluorophenyl)methyl]-6-hydroxy-5,7-dioxo-3-(phenylmethyl)-2,3,5,7,11,11a-hexahydro[1,3]oxazolo[3,2-a]pyrido[1,2-d]pyrazine-8-carboxamide], with below 10 nM.
As for `O=C(NCc1ccc(F)cc1)c1cn2c(c(O)c1=O)C(=O)N1CC[C@@H]3CCCN3[C@@H]1C2` [Example Z-7, (3aS,13aS)—N-[(4-Fluorophenyl)methyl]-8-hydroxy-7,9-dioxo-1,2,3,3a,4,5,7,9,13,13a-decahydropyrido[1′,2′:4,5]pyrazino[1,2-a]pyrrolo[1,2-c]pyrimidine-10-carboxamide], the 50% inhibitory concentration (IC50) was below 10 nM.
Take `CC[C@H](C)[C@H]1CO[C@@H]2Cn3cc(C(=O)NCc4ccc(F)cc4F)c(=O)c(O)c3C(=O)N12` [Example Z-8, (3S,11aR)—N-[(2,4-Difluorophenyl)methyl]-6-hydroxy-3-[(1S)-1-methylpropyl]-5,7-dioxo-2,3,5,7,11,11a-hexahydro[1,3]oxazolo[3,2-a]pyrido[1,2-d]pyrazine-8-carboxamide sodium salt]: the IC50 was in the range of 10 to 100 nM.
Turning to `C[C@H]1CO[C@@H]2Cn3cc(C(=O)NCc4ccc(F)cc4F)c(=O)c(O)c3C(=O)N12` [Example Z-9, (3S,11aR)—N-[(2,4-Difluorophenyl)methyl]-6-hydroxy-3-methyl-5,7-dioxo-2,3,5,7,11,11a-hexahydro[1,3]oxazolo[3,2-a]pyrido[1,2-d]pyrazine-8-carboxamide sodium salt], the IC50 was below 10 nM.
Regarding `C[C@H]1CO[C@@H]2Cn3cc(C(=O)NCc4ccc(F)cc4)c(=O)c(O)c3C(=O)N12` [Example Z-10, (3S,11aR)—N-[(4-fluorophenyl)methyl]-6-hydroxy-3-methyl-5,7-dioxo-2,3,5,7,11,11a-hexahydro[1,3]oxazolo[3,2-a]pyrido[1,2-d]pyrazine-8-carboxamide], the IC50 was below 10 nM.
With `CC(C)(C)[C@H]1CO[C@@H]2Cn3cc(C(=O)NCc4ccc(F)cc4F)c(=O)c(O)c3C(=O)N21` [Example Z-11, (3S,11aR)—N-[(2,4-Difluorophenyl)methyl]-3-(1,1-dimethylethyl)-6-hydroxy-5,7-dioxo-2,3,5,7,11,11a-hexahydro[1,3]oxazolo[3,2-a]pyrido[1,2-d]pyrazine-8-carboxamide], the IC50 was below 10 nM.
As to `CC(C)(C)[C@H]1CO[C@@H]2Cn3cc(C(=O)NCc4ccc(F)cc4)c(=O)c(O)c3C(=O)N21` [Example Z-12, (3S,11aR)-3-(1,1-Dimethylethyl)-N-[(4-fluorophenyl)methyl]-6-hydroxy-5,7-dioxo-2,3,5,7,11,11a-hexahydro[1,3]oxazolo[3,2-a]pyrido[1,2-d]pyrazine-8-carboxamide], the IC50 is below 10 nM.
For `O=C(NCc1ccc(F)cc1F)c1cn2c(c(O)c1=O)C(=O)N1[C@@H](c3ccccc3)CO[C@@H]1C2` [Example Z-13, (3S,11aR)—N-[(2,4-Difluorophenyl)methyl]-6-hydroxy-5,7-dioxo-3-phenyl-2,3,5,7,11,11a-hexahydro[1,3]oxazolo[3,2-a]pyrido[1,2-d]pyrazine-8-carboxamide], the half-inhibitory concentration (IC50) was 10 to 100 nM.

Source of the values: patent publication US11267823B2, “Substituted 1,2,3,3a,4,5,7,9,13,13a-decahydropyrido[1′,2′:4,5]pyrazino[1,2-a]pyrrolo[1,2-c]pyrimidines having HIV integrase inhibitory activity” (Shionogi & Co., Ltd., priority 2005, dated 2022).
